Reference: US9744152B2, “Vitamins C and K for treating polycystic diseases” (IC-MedTech Corporation, priority 2010, dated 2017)
Marks after values point to notes of the source that are not given here.

Tests used:
PCK rats = test: Body, liver and kidney weights in PCK rats after 6 weeks of treatment; assay type: in vivo, rat; conditions: for Kidney Weight / Kidney Weight (% bw) / Liver Weight / Liver Weight (% bw): 6 weeks in drinking water; for Body Weight: 6 weeks in drinking water (VC 15 g/L; VK3 0.15 g/L; APATONE® 15 g/L + 0.15 g/L)
Excerpt: (§1) Thirty seven PCK rats (20 females and 17 males) at age of 3 weeks were divided into four groups: (i) vitamin C (VC) treatment group: 5 females and 4 males; (ii) vitamin K3 (VK3) treatment group: 5 females and 4 males; (iii) APATONE® treatment group: 6 females and 5 males; and (iv) control group: 4 females and 4 males. Similarly, twenty Pkd2^WS25/− mice (12 females and 8 males) at age of 5 months were divided into four groups: (i) vitamin C (VC) treatment group: 3 females; (ii) vitamin K3 (VK3) treatment group: 2 females and 2 males; (iii) APATONE® treatment group: 4 females and 3 males; and (iv) control group: 3 females and 3 males.
(§2) The VC treatment groups were given vitamin C at a concentration of 15 g/L in drinking water. The VK3 treatment groups were given vitamin K3 at a concentration of 0.15 g/L in drinking water. The APATONE® treatment groups were given vitamins C and K3 at concentrations of 15 g/L and 0.15 g/L, respectively, in drinking water. The control groups were given drinking water only. Rats or mice in each group were allowed to drink freely.
(§3) The rats and mice were sacrificed after 6 weeks of treatment. The following parameters were analyzed: body weights, liver and kidney weights, serum biochemistry, renal and hepatic cystic and fibrotic areas, apoptotic and proliferation indices, expression of Cdc25A and its down-stream targets. […]

Pkd2^WS25/− mice = test: Body, liver and kidney weights in Pkd2^WS25/− mice after 6 weeks of treatment; assay type: in vivo, mouse; conditions: for Kidney Weight / Kidney Weight (%) / Liver Weight / Liver Weight (%): 6 weeks in drinking water; for Body Weight: 6 weeks in drinking water (VC 15 g/L; VK3 0.15 g/L; APATONE® 15 g/L + 0.15 g/L)
Excerpt: as §1, §2, §3

Row | Structure (SMILES) | Kidney Weight (PCK rats; Female) [g] | Kidney Weight (% bw) (PCK rats; Female) | Liver Weight (PCK rats; Female) [g] | Liver Weight (% bw) (PCK rats; Female) | Body Weight (PCK rats; Female) [g] | Body Weight (g) Change vs Ctrl (PCK rats; Female) [%] | Kidney Weight (% bw) Change vs Ctrl (PCK rats; Female) | Kidney Weight (g) Change vs Ctrl (PCK rats; Female) | Liver Weight (% bw) Change vs Ctrl (PCK rats; Female) | Liver Weight (g) Change vs Ctrl (PCK rats; Female) | Kidney Weight (PCK rats; Male) [g] | Kidney Weight (% bw) (PCK rats; Male) | Liver Weight (PCK rats; Male) [g] | Liver Weight (% bw) (PCK rats; Male) | Body Weight (PCK rats; Male) [g] | Body Weight (g) Change vs Ctrl (PCK rats; Male) [%] | Kidney Weight (% bw) Change vs Ctrl (PCK rats; Male) | Kidney Weight (g) Change vs Ctrl (PCK rats; Male) | Liver Weight (% bw) Change vs Ctrl (PCK rats; Male) | Liver Weight (g) Change vs Ctrl (PCK rats; Male) | also measured
1 | O=C1O[C@H]([C@@H](O)CO)C(O)=C1O [VC, L-ascorbic acid] | 3.88 ± 0.19 | 1.47 ± 0.11 | 16.6 ± 1.3 | 6.36 ± 0.23 | 261 ± 10 | −3.3 | −0.7% | −2.8% | 0.8% | −2.8% | 4.95 ± 0.18 | 1.19 ± 0.13 | 23.3 ± 1.8 | 5.61 ± 0.14 | 416 ± 13 | 0.8 | 0% | 1.2% | −1.2% | −0.4% | Kidney Weight (Pkd2^WS25/− mice): 0.46 ± 0.04 g; Kidney Weight (%) (Pkd2^WS25/− mice): 1.76 ± 0.16%; Liver Weight (Pkd2^WS25/− mice): 2.29 ± 0.43 g; Liver Weight (%) (Pkd2^WS25/− mice): 9.29 ± 2.01%; Body Weight (Pkd2^WS25/− mice): 26.7 ± 2.0 g; Body Weight (g) Change vs Ctrl (Pkd2^WS25/− mice): 1.5%; Kidney Weight (% bw) Change vs Ctrl (Pkd2^WS25/− mice): −6.7%; Kidney Weight (g) Change vs Ctrl (Pkd2^WS25/− mice): −6.1%; Liver Weight (% bw) Change vs Ctrl (Pkd2^WS25/− mice): 15.4%; Liver Weight (g) Change vs Ctrl (Pkd2^WS25/− mice): 8.0%
2 | CC1=CC(=O)c2ccccc2C1=O [VK3, menadione] | 3.78 ± 0.09 | 1.36 ± 0.13 | 15.5 ± 0.6 | 5.60 ± 0.13 | 276 ± 9 | 2.2 | −8.1%* | −5.2%* | −11.3%* | −9.2%* | 4.57 ± 0.13 | 1.11 ± 0.11 | 20.8 ± 0.5 | 5.12 ± 0.09 | 408 ± 16 | −1.1 | −6.7%* | −6.5%* | −9.8%* | −10.9%* | Kidney Weight (Pkd2^WS25/− mice): 0.42 ± 0.01 g; Kidney Weight (%) (Pkd2^WS25/− mice): 1.53 ± 0.05%; Liver Weight (Pkd2^WS25/− mice): 1.64 ± 0.15 g; Liver Weight (%) (Pkd2^WS25/− mice): 5.87 ± 0.36%; Body Weight (Pkd2^WS25/− mice): 27.9 ± 1.9 g; Body Weight (g) Change vs Ctrl (Pkd2^WS25/− mice): 5.8%; Kidney Weight (% bw) Change vs Ctrl (Pkd2^WS25/− mice): −19.0%*; Kidney Weight (g) Change vs Ctrl (Pkd2^WS25/− mice): −14.3%*; Liver Weight (% bw) Change vs Ctrl (Pkd2^WS25/− mice): −27.1%*; Liver Weight (g) Change vs Ctrl (Pkd2^WS25/− mice): −22.6%*
